Blank lines part the entries; values can stand above or below the molecule they belong to.
Tests used:
[1] = Electrophoretic mobility by capillary zone electrophoresis; format: physicochemical; conditions: no surfactant
Protocol: Since electrophoretic mobility (ie, the ability of a drug/agent to migrate in an electric field) is an important aspect of electrotransport drug delivery, the electrophoretic mobility of the drug/agent being delivered is predictive of suitability for transdermal electrotransport delivery. Electrophoretic mobility measurements were performed using a capillary zone electrophoresis instrument (model 2100 P/ACE instrument, Beckman Instruments, Inc., Palo Alto, Calif.). At acid pH values DB-WAX, DB-1, DB-17 (J&W Scientific, Folsom, Calif.) capillary columns were used either with 50 or 100 micron internal diameter column and CElect H75 (Supelco, Bellefonte, Pa.) capillary column with a 75 micron internal diameter. At alkaline pH values uncoated silica capillaries of length 57 cm with an internal diameter of 75 microns were used with an applied voltage of 20 kV. If any electroosmotic flow was present, it was detected using a neutral marker such as 0.01% benzyl alcohol (SIGMA, St. Louis, Mo.) or 1/500 mesityl oxide (Applied Biosystems, Foster City, Calif.). The optimum voltage was determined by doing an Ohm's Law test on each buffer and capillary system. The temperature of the capillary columns was set at 32° C. and a two second pressure injection was done. A UV detector was used to monitor peptide and markers at either 214 or 280 nm.
Voltage injection had to be used for the 27 cm length column. The voltage applied varied depending on the capillary length.
The following equation was used to determine electrophoretic mobility μ. [formula]
If the electroosmotic flow is detected, the following equation can be used.
μpeptide =μtotal -μneutral marker
(§1) The measurement procedures described above were conducted on an aqueous solution of the protein insulinotropin, with TWEEN® 20 (MW=1126 g/mol) as the surfactant, with the following modifications. The insulinotropin donor solution concentration was 0.12 mg/mL. One test was run in 10 mM sodium borate at pH 9.0 and another test in 10 mM sodium chloroacetate at pH 3.5.
(§2) Fractional changes (%δ) are defined as the difference between the reading at a given surfactant concentration (Ec) minus the reading at zero surfactant (E0), the quantity divided by the difference between the reading at saturated surfactant concentration (Es) minus the reading at zero surfactant (E0), i. e. %δ=(Ec -E0)/(Es-E0).
The measurement procedures described earlier were conducted in this example on an aqueous solution containing insulinotropin as the agent and dodecyl trimethyl ammonium chloride (DTAC) as the ionic surfactant with the following modifications. […]
The same measurement procedures were conducted using an aqueous solution of salmon calcitonin as the agent and the zwitterionic dodecyl sulfobetaine as the surfactant with the following modifications. The temperature was initially 32° C., the surfactant concentration was varied up to 30 mM, and the calcitonin concentration was 0.06 to 0.08 mM. Tables 7, 8, and 9 below provide the results obtained in terms of polypeptide ellipticity expressed as a function of zwitterionic surfactant concentration at pH 3.5 in 12 mM sodium chloroacetate (Table 7), 5.0 in 4 mM piperazine HCI (Table 8), and 6.5 in 15 mM sodium cacodylate (Table 9), respectively. Table 8, in addition, provides the results obtained on electrophoretic mobility and HIC retention time in a phenyl superose column at pH 5.0.

[2] = Hydrophobicity by hydrophobic interaction chromatography (HIC), phenyl Superose column (retention time, ta/tm); format: physicochemical; conditions: for HIC Retention Time (Phenyl Superose Col.): no surfactant
Protocol: The hydrophobicity of an agent (eg, an agent such as a polypeptide or protein in solution, as well as the relative increase or decrease thereof) is determined by passing the agent-containing solution through a chromatography column filled with a particular "hydrophobic interaction" bead material and measuring either (1) the time required for the agent to elute (ie, pass through) the column or (2) the volume of liquid (ie, the same liquid used in the agent-containing sample, but with the agent removed) required to be pumped through the column in order to elute the agent. For the purposes of the present invention, the hydrophobicity of an agent is defined in terms relative to the marker compound, N-acetyl tryptophanamide (sold by Sigma Chemical, St. Louis, Mo.), which has a somewhat moderate hydrophobicity. Hydrophobicity, as that term is used herein, is measured using a 5 mm diameter glass column having a length of 5 cm (ie, column volume of 1.0 mL) and packed with cross-linked agar beads having an average particle size of 13.5 μm. Examples of suitable hydrophobic bead materials include cross-linked agar gel beads (Superose 12) having hydrophobic ligands attached to the agar via chemically stable ether linkages ((Superose 12)--O--CH2 --CHOH--CH2 --O--R) such as alkyl-Superose wherein R is --CH2 --C(CH3)3 and phenyl-Superose wherein R is phenyl, both of which are sold in pre-packaged column form by Pharmacia Biotech, Inc. of Piscataway, N.J. Immediately downstream from the column is placed a flow cell which permits continuous UV absorbance measurements of the solution flowing out of the column. Suitable flow cells and UV absorbance detectors are sold by Perkin-Elmer Corp., Applied Biosystems, Foster City, Calif. Hydrophobicity measurements are conducted at 32° C. with the same buffer that is used in the electrotransport system which is used to deliver the agent (eg, transdermally) to the patient. The buffer strength used in the hydrophobicity measurements is 10 mM ionic strength. The term "certain hydrophobicity" as used herein, means that the time required for the agent to elute from the column, relative to the time required for N-acetyl tryptophanamide to elute, is as follows:
ta /tm >0.7, and preferably ta /tm >3
ta is the time at which the peak UV absorbance value is recorded for the beneficial agent in the flow cell, less the time required to initially fill the column with the agent-containing solution (ie, dead volume retention time); and
tm is the time at which the peak UV absorbance value is recorded for the N-acetyl tryptophanamide marker in the flow cell, less the time required to initially fill the column with the marker-containing solution (ie, dead volume retention time).
The above described measurement of agent hydrophobicity is substantially independent of column size and flow rate through the column.
One method of measuring the hydrophobicity of an agent such as a polypeptide or protein is by hydrophobic interaction chromatography (HIC). The principles and conditions associated with HIC are fully described in Protein Purification: Principles, High Resolution Methods, and Applications, Janson and Ryden, Eds., pp. 207-226 (1989), the pertinent portions of which are incorporated herein by reference. This method requires passing a composition through a hydrophobic interaction column and measuring the volume of solvent required for its complete elution. The hydrophobic sites on the agent are generally attracted to hydrophobic groups, such as aryl groups, affixed to beads placed within the column. A preferred HIC column material is phenyl-superose (Pharmacia, Sweden), a cross-linked polysaccharide which has been covalently modified to have pendant hydrophobic aryl groups. These pendant groups are similar to the hydrophobic or lipophilic species in the skin layers. Thus, this hydrophobic interaction column approximates, and is a good in vitro model for, an animal's skin layer as a barrier to transport of a polypeptide or protein. […]

[3] = pH 6.5
Protocol: A. Preparation of Human Skin Samples
Human cadaver skin was prepared by first removing about 1 mm thick skin samples in the form of strips. The skin strips were placed in polyethylene bags, sealed and placed in a refrigerator at about 4° C. for temporary storage. Prior to use in the electrotransport cell, the skin strips were placed in one-liter beakers containing water at 60° C. for about 90 seconds with gentle stirring. Then, the skin strips were removed and placed onto the absorbent side of a piece of BENCHKOTE™ material with the dermis side down. Using flat tipped tweezers to retain the dermis, the epidermis was removed from each strip with a round-tip spatula. Each epidermis, stratum corneum side up, was transferred to a PYREX™ glass tray filled with water. Each floating epidermis was stretched essentially flat. After removal from the water 2.22 cm (7/8 in) diameter disks of each epidermis were punched out of areas having negligible surface damage. The discs were stored at 4° C. in a sealed container with water droplets to maintain their moisture.
B. Set-up of Electrotransport Cell and Composition […]
The solution concentration of the polypeptide in the donor compartment 44 was, unless otherwise specified, 1 mM. […] The polypeptide flux was determined by periodic sampling of the solution in the receptor compartment 46. […]

[4] = Measurement of circular dichroism (mean residue ellipticity at 222 nm); format: physicochemical; conditions: insulinotropin as agent
From the text: In general, the structure of a polypeptide in an aqueous buffered solution is in constant flux between portions thereof being random coil and alpha-helix configurations. For the polypeptides used in the following examples, the predominant structure is a random coil since the alpha-helix configuration is unstable in the absence of bound surfactant. According to the present invention adding surfactant to an aqueous solution of a polypeptide stabilizes the alpha-helix configuration. Circular dichroism is a measurement of the amount of the alpha-helix configured polypeptide present in the solution. Thus, circular dichroism provides an indirect measurement of the degree of binding of the surfactant to the polypeptide. (See, for example, Epand R. M., Epand R. F., Orlowski R. C., Schuleter R. J., Boni L. T. and Hui S. W., Biochemistry 22, 5074-5084 (1983); Hui, S. W., Epand R. M., Dell K. R., Epand R. F. and Orlowski R. C., Biochimica Biophysica Acta 772, 264-272 (1984); Epand R. M., Epand R. F., and Orlowski R. C., International Journal Peptide Protein Research 25 105-111; Epand R. M., Epand R. F., Orlowski R. C., Seyler J. K. and Colescott R. L., Biochemistry 25, 1964-1968; Epand R. M., Seyler J. K. and Orlowski R. C., European Journal Biochemistry 159, 125-127 (1986); Wiersema P. H., Loeb A. L. and Overbeek, J., Colloid Interface Science 22, 78-99 (1966)).
The surfactant/peptide circular dichroism (CD) spectra were obtained in a 2 mm path-length cell (110-Q-2 Model, AVIV, Lakewood, N.J.) at 32° C. The cell was initially loaded with 0.60 mL of a solution containing about 0.25 mg/mL of the peptide in 10 mM sodium chloroacetate (pH 3.5) or 10 mM sodium borate (pH 9.0). The buffers were selected to minimize the effect of the temperature on the pH of the solution and to minimize light absorption, thereby optimizing the signal-to-noise ratio (SNR). The peptide concentration was determined by spectrophotometry, with log-log correction for light scattering. The surfactant concentration was increased step-wise by titration of concentrated surfactant stock directly into the CD cell, followed by eight inversions of the cell, with the air bubble providing the mixing turbulence. After mixing, the cell was placed into the AVIV 62 CD spectrometer (AVIV, Lakewood, N.J.). In order to approximate temperature and chemical equilibrium, the sample remained in the spectrometer 5 minutes before a reading was taken. The CD spectrum was taken using a band pass of 1 nm, a data interval of 1 nm, and a data averaging time of 10 seconds. The mean residue ellipticity is the ellipticity divided by the path length in cm times the amino acid residue concentration in decimoles/cm^3. See Methods in Enzymology, Vol 130, pp 208-269, Yang et al, "Calculation of Protein Conformation from Circular Dichroism" (1986).
as §1, §2
The measurement procedures described earlier were conducted on an aqueous solution of insulinotropin as the agent, and TWEEN® 40 (molecular weight 1282 g/mol) as the surfactant with the following changes. The insulinotropin concentration was initially 0.29 mg/mL, and 0.21 mg/mL after the final TWEEN® 40 addition and the temperature was held at 32° C. Two tests were conducted at two different concentrations of TWEEN® 40. […]

Molecule: Cytochrome C: protein, molecular weight 12,400 g/mol
- Electrophoretic Mobility [1]: 2.5 × 10^-4 cm^2 /V-s
- HIC Retention Time (Phenyl Superose Col.) [2]: 2.0 min

- ta /tm ([2]; 10 mM HIS buffer, pH 7.0): 0.6
- ta /tm ([2]; HIS buffer, pH 7.2): 0.5
- ta /tm ([2]; pH 6.5 (10 mM histidine), no enhancer): 0.8
- ta /tm ([2]; pH 6.5 (10 mM histidine), no enhancer, listed as decapeptide): about 0.8
- ta /tm ([2]; pH 6.5, with 3 mM Tween 20): 0.9
- in vitro Skin Flux [3]: l.3 μg/cm^2 -hr
Molecule: D-Glu-D-Tyr-D-Leu-D-Lys-D-Ata-D-Leu-D-Leu-D-Ser-D-Lys-D-Leu-NH2 [Model Decapeptide, reference compound]

Molecule: Lysozyme: protein, molecular weight 14,315 g/mol
- Electrophoretic Mobility [1]: 2.4 × 10^-4 cm^2 /V-s
- HIC Retention Time (Phenyl Superose Col.) [2]: 24.0 min

Molecule: CCCCCCCCCCCC[N+](C)(C)C.[Cl-] [DTAC, dodecyl trimethyl ammonium chloride, reference compound]
- surfactant concentration at which an ellipticity of -9000 occurs [4]: about 3.0 mM

B1: Ribonuclease: protein, molecular weight 13,686 g/mol (protein, UniProt P61823 27-150, looked up)
Ribonuclease pancreatic: KETAAAKFERQHMDSSTSAASSSNYCNQMMKSRNLTKDRCKPVNTFVHESLADVQAVCSQKNVACKNGQTNCYQSYSTMSITDCRETGSSKYPNCAYKTTQANKHIIVACEGNPYVPVHFDASV
- Electrophoretic Mobility [1]: 1.9 × 10^-4 cm^2 /V-s
- HIC Retention Time (Phenyl Superose Col.) [2]: 12.1 min

Reference: US6328728A, “Composition and method for enhancing electrotransport agent delivery” (Alza Corporation, priority 1997, dated 2001)
